Reference: article PMC11003488 (Journal of Enzyme Inhibition and Medicinal Chemistry, 2023)
Where “and” joins values, the source holds several entries; their conditions need not be identical. Identical values can stand only once.

What was measured:
HCT-116 (colon cancer) [1] = assay: Apoptosis AV/PI assay by flow cytometry; assay type: cell-based, human; settings: HCT-116, 24 h, IC50 of compound
HCT-116 (colon cancer) [2] = assay: Cell cycle analysis by PI flow cytometry; assay type: cell-based, human; settings: HCT-116, 24 h, IC50 of compound
Caspase-3 [3] = assay: Protein level by ELISA assay in HCT-116; assay type: cell-based, human; settings: HCT-116, IC50 of compound, 24 h, vs 0.1% DMSO
Bax [4] = assay: Protein level by ELISA assay in HCT-116; assay type: cell-based, human; settings: HCT-116, IC50 of compound, 24 h, vs 0.1% DMSO
Caspase-3 [5] = assay: Gene expression by RT-qPCR in HCT-116; settings: HCT-116, 24 h, IC50 of compound; vs 0.1% DMSO; 2^-ΔΔct
Cyt-c = assay: Gene expression by RT-qPCR in HCT-116; settings: HCT-116, 24 h, IC50 of compound; vs 0.1% DMSO; 2^-ΔΔct
Bax [6] = assay: Gene expression by RT-qPCR in HCT-116; settings: HCT-116, 24 h
Bcl-2 = assay: Gene expression by RT-qPCR in HCT-116; settings: HCT-116, 24 h, IC50 of compound; vs 0.1% DMSO; 2^-ΔΔct
TNF-α = assay: Gene expression by RT-qPCR in HCT-116; settings: HCT-116, 24 h, IC50 of compound; vs 0.1% DMSO; 2^-ΔΔct
CCRF-CEM = settings: NCI Data NSC: 800934 ref 41; cited from earlier work
HL-60(TB) = settings: NCI Data NSC: 800934 ref 41; cited from earlier work
MOLT-4 = settings: NCI Data NSC: 800934 ref 41; cited from earlier work
SR = settings: NCI Data NSC: 800934 ref 41; cited from earlier work
A549/ATCC = settings: NCI Data NSC: 800934 ref 41; cited from earlier work
EKVX = settings: NCI Data NSC: 800934 ref 41; cited from earlier work
HOP-62 = settings: NCI Data NSC: 800934 ref 41; cited from earlier work
NCI-H226 = settings: NCI Data NSC: 800934 ref 41; cited from earlier work
NCI-H23 = settings: NCI Data NSC: 800934 ref 41; cited from earlier work
NCI-H322M = settings: NCI Data NSC: 800934 ref 41; cited from earlier work
NCI-H460 = settings: NCI Data NSC: 800934 ref 41; cited from earlier work
NCI-H522 = settings: NCI Data NSC: 800934 ref 41; cited from earlier work
COLO 205 = settings: NCI Data NSC: 800934 ref 41; cited from earlier work
HCC-2998 = settings: NCI Data NSC: 800934 ref 41; cited from earlier work
HCT-15 = settings: NCI Data NSC: 800934 ref 41; cited from earlier work
HT29 = settings: NCI Data NSC: 800934 ref 41; cited from earlier work
KM12 = settings: NCI Data NSC: 800934 ref 41; cited from earlier work
SW-620 = settings: NCI Data NSC: 800934 ref 41; cited from earlier work
SF-268 = settings: NCI Data NSC: 800934 ref 41; cited from earlier work
SF-295 = settings: NCI Data NSC: 800934 ref 41; cited from earlier work
SF-539 = settings: NCI Data NSC: 800934 ref 41; cited from earlier work
SNB-19 = settings: NCI Data NSC: 800934 ref 41; cited from earlier work
SNB-75 = settings: NCI Data NSC: 800934 ref 41; cited from earlier work
U251 = settings: NCI Data NSC: 800934 ref 41; cited from earlier work
LOX IMVI = settings: NCI Data NSC: 800934 ref 41; cited from earlier work
MALME-3M = settings: NCI Data NSC: 800934 ref 41; cited from earlier work
M14 = settings: NCI Data NSC: 800934 ref 41; cited from earlier work
MDA-MB-435 = settings: NCI Data NSC: 800934 ref 41; cited from earlier work
SK-MEL-2 = settings: NCI Data NSC: 800934 ref 41; cited from earlier work
SK-MEL-28 = settings: NCI Data NSC: 800934 ref 41; cited from earlier work
UACC-257 = settings: NCI Data NSC: 800934 ref 41; cited from earlier work
UACC-62 = settings: NCI Data NSC: 800934 ref 41; cited from earlier work
IGROV1 = settings: NCI Data NSC: 800934 ref 41; cited from earlier work
OVCAR-3 = settings: NCI Data NSC: 800934 ref 41; cited from earlier work
OVCAR-4 = settings: NCI Data NSC: 800934 ref 41; cited from earlier work
OVCAR-5 = settings: NCI Data NSC: 800934 ref 41; cited from earlier work
OVCAR-8 = settings: NCI Data NSC: 800934 ref 41; cited from earlier work
NCI/ADR-RES = settings: NCI Data NSC: 800934 ref 41; cited from earlier work
SK-OV-3 = settings: NCI Data NSC: 800934 ref 41; cited from earlier work
786-0 = settings: NCI Data NSC: 800934 ref 41; cited from earlier work
A498 = settings: NCI Data NSC: 800934 ref 41; cited from earlier work
ACHN = settings: NCI Data NSC: 800934 ref 41; cited from earlier work
CAKI-1 = settings: NCI Data NSC: 800934 ref 41; cited from earlier work
RXF 393 = settings: NCI Data NSC: 800934 ref 41; cited from earlier work
SN12C = settings: NCI Data NSC: 800934 ref 41; cited from earlier work
TK-10 = settings: NCI Data NSC: 800934 ref 41; cited from earlier work
UO-31 = settings: NCI Data NSC: 800934 ref 41; cited from earlier work
PC-3 = settings: NCI Data NSC: 800934 ref 41; cited from earlier work
DU-145 = settings: NCI Data NSC: 800934 ref 41; cited from earlier work
MCF7 = settings: NCI Data NSC: 800934 ref 41; cited from earlier work
HS 578 T = settings: NCI Data NSC: 800934 ref 41; cited from earlier work
BT-549 = settings: NCI Data NSC: 800934 ref 41; cited from earlier work
T-47D = settings: NCI Data NSC: 800934 ref 41; cited from earlier work
[7] = system: NCI 60-cell line panel (full panel); settings: read-out: Full panel MG-MID GI50, NCI Data NSC: 800934; cited from earlier work
Leukaemia cell lines = settings: read-out: MG-MID GI50; leukaemia subpanel; NCI Data NSC: 800934; cited from earlier work
NSCLC cell lines = settings: read-out: MG-MID GI50; NSCLC subpanel; NCI Data NSC: 800934; cited from earlier work
Colon cancer cell lines = settings: read-out: MG-MID GI50; Colon Cancer subpanel; NCI Data NSC: 800934; cited from earlier work
CNS cancer cell lines = settings: read-out: MG-MID GI50; CNS Cancer subpanel; NCI Data NSC: 800934; cited from earlier work
Melanoma cell lines = settings: read-out: MG-MID GI50; Melanoma subpanel; NCI Data NSC: 800934; cited from earlier work
[8] = system: Ovarian cancer cell lines; settings: read-out: MG-MID GI50; Ovarian Cancer subpanel; NCI Data NSC: 800934; cited from earlier work
Renal cancer cell lines = settings: read-out: MG-MID GI50; Renal Cancer subpanel; NCI Data NSC: 800934; cited from earlier work
[9] = system: Prostate cancer cell lines; settings: read-out: MG-MID GI50; Prostatic Cancer subpanel; NCI Data NSC: 800934; cited from earlier work
Breast cancer cell lines = settings: read-out: MG-MID GI50; Breast Cancer subpanel; NCI Data NSC: 800934; cited from earlier work

## COc1cccc2c1C(=O)c1c(O)c3c(c(O)c1C2=O)C[C@@](O)(C(=O)CO)C[C@@H]3O[C@H]1C[C@H](N)[C@H](O)[C@H](C)O1 [Doxorubicin, reference compound]
HCT-116 (colon cancer) [1]
  % Early apoptotic cells (LR): 0.00 ± 0.0%
  % Late apoptotic cells (UL): 3.86 ± 0.66%
  % Necrotic cells (UR): 96.12 ± 14.1%
  % Viable cells (LL): 0.03 ± 0.001%
HCT-116 (colon cancer) [2]
  % G0-G1: 55.35 ± 6.3%
  % G2M: 15.05 ± 6.7%
  % S: 18.68 ± 2.2%
  % SubG0-G1: 10.75 ± 2.3%
Caspase-3 [3]
  caspase-3 protein level: 34.15 fold
Bax [4]
  Bax protein level: 1.86 fold
Caspase-3 [5]
  Caspase-3 gene expression fold change: 0.75 ± 0.09 fold
Cyt-c
  Cyt-c gene expression fold change: 44.32 ± 4.3 fold
Bax [6]; IC50 of compound, vs 0.1% DMSO, 2^-ΔΔct
  Bax gene expression fold change: 0.31 ± 0.05 fold
Bax [6]; ratio of gene expression fold changes
  Bax/Bcl-2 ratio: 2
Bcl-2
  Bcl-2 gene expression fold change: 0.15 ± 0.03 fold
TNF-α
  TNF-α gene expression fold change: 2.33 fold and 2.33 ± 0.2 fold

## CNC(=O)c1cc(Oc2ccc(NC(=O)Nc3ccc(Cl)c(C(F)(F)F)c3)cc2)ccn1 [Sorafenib]
CCRF-CEM
  GI50: 3.16 µM
HL-60(TB)
  GI50: 0.63 µM
MOLT-4
  GI50: 2.51 µM
SR
  GI50: 1.99 µM
A549/ATCC
  GI50: 3.16 µM
EKVX
  GI50: 3.16 µM
HOP-62
  GI50: 2.51 µM
NCI-H226
  GI50: 1.25 µM
NCI-H23
  GI50: 1.99 µM
NCI-H322M
  GI50: 3.98 µM
NCI-H460
  GI50: 3.16 µM
NCI-H522
  GI50: 1.99 µM
COLO 205
  GI50: 2.51 µM
HCC-2998
  GI50: 3.16 µM
HCT-15
  GI50: 2.51 µM
HT29
  GI50: 2.51 µM
KM12
  GI50: 2.51 µM
SW-620
  GI50: 3.98 µM
SF-268
  GI50: 3.98 µM
SF-295
  GI50: 2.51 µM
SF-539
  GI50: 1.99 µM
SNB-19
  GI50: 5.01 µM
SNB-75
  GI50: 1.99 µM
U251
  GI50: 3.16 µM
LOX IMVI
  GI50: 2.51 µM
MALME-3M
  GI50: 3.16 µM
M14
  GI50: 1.99 µM
MDA-MB-435
  GI50: 1.99 µM
SK-MEL-2
  GI50: 1.25 µM
SK-MEL-28
  GI50: 2.51 µM
UACC-257
  GI50: 1.99 µM
UACC-62
  GI50: 2.51 µM
IGROV1
  GI50: 3.16 µM
OVCAR-3
  GI50: 3.98 µM
OVCAR-4
  GI50: 3.16 µM
OVCAR-5
  GI50: 3.16 µM
OVCAR-8
  GI50: 3.16 µM
NCI/ADR-RES
  GI50: 3.16 µM
SK-OV-3
  GI50: 3.16 µM
786-0
  GI50: 3.98 µM
A498
  GI50: 3.16 µM
ACHN
  GI50: 3.16 µM
CAKI-1
  GI50: 3.16 µM
RXF 393
  GI50: 3.98 µM
SN12C
  GI50: 3.16 µM
TK-10
  GI50: 3.98 µM
UO-31
  GI50: 3.16 µM
PC-3
  GI50: 1.99 µM
DU-145
  GI50: 5.01 µM
MCF7
  GI50: 2.51 µM
HS 578 T
  GI50: 3.16 µM
BT-549
  GI50: 3.16 µM
T-47D
  GI50: 1.99 µM
[7]
  GI50: 2.76 µM
Leukaemia cell lines
  GI50: 1.91 µM
NSCLC cell lines
  GI50: 2.53 µM
Colon cancer cell lines
  GI50: 2.68 µM
CNS cancer cell lines
  GI50: 3.1 µM
Melanoma cell lines
  GI50: 2.16 µM
[8]
  GI50: 3.27 µM
Renal cancer cell lines
  GI50: 3.46 µM
[9]
  GI50: 3.5 µM
Breast cancer cell lines
  GI50: 2.76 µM
